Results on seven compounds are retold here after ChEMBL document CHEMBL1127693, “Novel isoxazoles which interact with brain cholinergic channel receptors have intrinsic cognitive enhancing and anxiolytic activities” (J Med Chem, 1994).

Structures are written as SMILES.

A short description of experiment [1]: Binding affinity at CCR was determined by displacement of [3H]cytisine from rat brain. The class given is tissue-based. (In general: Loss of bound radioactivity is the signal in a displacement assay; it reports binding, not function.)
The target in experiment [2] is Muscarinic acetylcholine receptor (Rattus norvegicus). The experiment can be described thus: Binding affinity at muscarinic receptor was determined by displacement of [3H]OXO-M from rat brain.
A short description of experiment [3]: Binding affinity at CCR was determined by displacement of [125I]- alpha-BgT from rat brain. The class given is tissue-based.
Experiment [4] can be described thus: Binding affinity at CCR was determined by displacement of [125I]- alpha-BgT from Torpedo californica electroplax. The arrangement: species or system Tetronarce californica.
Experiment [5] can be described thus: Binding affinity at CCR was determined by displacement of [3H]nicotine from rat brain. The class given is tissue-based.

For orientation: Ki means a measure of affinity in units of concentration, obtained from inhibition or displacement. On to `Cc1cc([C@@H]2CCCN2)on1`, for which the Ki was 333 nM in experiment [1], above 20000 nM in experiment [2], above 20000 nM in experiment [3] and above 20000 nM in experiment [4].

With `c1cncc([C@H]2CCCN2)c1`, the Ki was found to be 41 nM in experiment [5] and 300 nM in experiment [4].

For `Cc1cc([C@H]2CCCN2C)on1`, in experiment [1], the inhibitory constant (Ki) came to 44 nM.

Consider `Cc1cc([C@H]2CCCN2)on1`, for which the Ki is 7.4 nM in experiment [1], 8000 nM in experiment [2], above 20000 nM in experiment [3] and 3400 nM in experiment [4].

In experiment [5], `CN1CCC[C@H]1c1cccnc1` [NICOTINE] came in with a Ki of 1.4 nM.

As for `c1cncc([C@@H]2CCCN2)c1` [NORNICOTINE], the Ki is 56 nM in experiment [5] and 11000 nM in experiment [4].

`CN1CCC[C@@H]1c1cccnc1` [R-NICOTINE] came in with a Ki in experiment [5] of 32 nM.
